Laboratory results from patent publication US12139717B2, “Improving plant regeneration” (KWS SAAT SE & Co. KGaA, priority 2019, dated 2024).
Entries after “also recorded” stand apart in the source; their conditions may differ.

What was measured:
sugar beet leaf explants = assay: Sugar beet callus induction from leaf explants in callus induction medium; format: cell-based; design: key to Callus induction effect: −: no callus induction effect; +: modest callus induction effect; ++: strong callus induction effect; settings: for callus induction in recalcitrant genotype A (FIG. 3): DMSO control
Description: 1. Micropropagated shoots of various proprietary genotypes were used as starting material: Genotypes A and B are recalcitrant to callus induction and plant regeneration. […] Therefore, such calli were never transformable.
Genotype C is less recalcitrant. Shoots were multiplied in MS salts+30 g/l sucrose and 0.25 mg/l benzyladenine (BAP).
2. To induce friable callus, leaf explants were isolated from micropropagated shoots and incubated in callus induction medium (CIM) containing MS salts including 15 g/I sucrose and 2 mg/l BAP at 28° C. for 7 to 8 weeks. […] HP is Hyperphyllin, a small molecule with the chemical formula N-[4-Amino-2-chlorophenyl]-2,4-dichlorobenzamide (CAS #: 42480-64-8).
After incubation period the induction and formation of callus has been analysed. […] There is no significant difference in induction efficiency between these two concentrations.

Arabidopsis thaliana = settings: Poretska et al. 2016; cited from earlier work
sugar beet friable calli = assay: Sugar beet shoot induction and plant regeneration from induced calli; format: cell-based; settings: calli induced with vs without HP
Description: 3. Friable calli of step 2 were harvested from the induction and transferred to the shoot induction medium containing MS salts, 30 g/l sucrose, 1 mg/l GA3 and 1 mg/l Thidiazuron (TDZ). The calli were incubated at 24° C. in the light/dark cycle (16 h/8 h) for 1 to 2 weeks. 4. Regenerated shoots were mounted and cultured in the medium of step 1. The plants are grown at 24° C. in the light/dark cycle (16 h/8 h).

sugar beet callus = assay: Agrobacteria-mediated transformation of HP induced sugar beet callus; format: cell-based; settings: recalcitrant genotype; 70s::tDT construct; seven days after infection
Description: a. Sugar beet calli were induced as described in steps 1 and 2.
b. Friable calli were mounted in medium containing MS salts, 30 g/l sucrose, 1 mg/l GA3 and 1 mg/l Thidiazuron (TDZ), and kept for 1 week in the dark, 24° C.
c. Agrobacterium AGL-1 harbouring the vector pZFN-nptII-70s::AtGRF5 and pZFN-nptII-70s::tDT was grown in medium (5 g/l tryptone+2.5 g/l yeast extract+1 g/l NaCl+5 g/l mannitol+0.1 g/l MgSO4×7H2O+0.25 g/l KH2PO4+1 g/l glutamic acid, pH 7.0) supplemented with the appropriate antibiotics, at 28° C., for 24 h.
d. Calli were inoculated with Agrobacterium suspension (medium: 440 mg/l CaCl2×2H2O+170 mg/l KH2PO4+1.9 g/l KNO3+180.7 mg/l MgSO4+1.65 g/l NH4NO3+2 mg/l BAP+40 μg/l Acetosyringone+20 g/l sucrose+2 g/l glucose, pH 6.0) at an OD600 of 0.8. The callus tissue and the Agrobacterium were incubated in medium comprising 440 mg/l CaCl2×2H2O, 170 mg/l KH2PO4, 1.9 g/l KNO3, 180.7 mg/l MgSO4, 1.65 g/l NH4NO3, 2 mg/l BAP, 40 μg/l Acetosyringone, 20 g/l sucrose and 2 g/l glucose, at 21° C. for 3 days in the dark.
e. Calli were sub-cultured to medium comprising MS salts, 30 g/l sucrose, 1 mg/l GA3, 1 mg/l TDZ and 500 mg/l Timentin, and incubated in the dark, at 24° C. for 1 week.
f. […]

## O=C(Nc1c(F)cccc1F)c1ccc(Cl)cc1 [HP derivate A1]
Sugar beet leaf explants; 30 μM
  callus inducing effect (in words): worked
Sugar beet leaf explants; 30 μM dissolved in 2 ml/L DMSO
  Callus induction effect: +
Sugar beet leaf explants; 50 μM dissolved in 2 ml/L DMSO
  Callus induction effect: −
Arabidopsis thaliana
  leaf formation rate: enhance leaf formation rate

## O=C(Nc1ccccc1)c1c(F)cccc1Cl [HP derivate A2]
Sugar beet leaf explants; 30 μM
  callus inducing effect (in words): strong callus-inducing effect
Sugar beet leaf explants; 30 μM dissolved in 2 ml/L DMSO
  Callus induction effect: ++
Sugar beet leaf explants; 50 μM
  callus inducing effect (in words): weak effect
Sugar beet leaf explants; 50 μM as printed in legend, control without HP treatment
  callus induction in recalcitrant genotype (FIG. 9): promotes callus induction
Sugar beet leaf explants; 50 μM dissolved in 2 ml/L DMSO
  Callus induction effect: +
Arabidopsis thaliana
  leaf formation rate: enhance leaf formation rate

## O=C(Nc1ccccc1)c1ccccc1Cl [HP derivate A3]
Arabidopsis thaliana
  leaf formation rate: enhance leaf formation rate

## Nc1ccc(NC(=O)c2ccc(Cl)cc2Cl)c(Cl)c1 [HP, N-[4-Amino-2-chlorophenyl]-2,4-dichlorobenzamide]
Sugar beet friable calli
  plants regenerated from induced callus (FIG. 6): More plants could be regenerated
Sugar beet leaf explants; 10 μM
  callus inducing effect (in words): modest effect
Sugar beet leaf explants; 10 μM dissolved in 2 ml/L DMSO
  Callus induction effect: +
Sugar beet leaf explants; 30 μM
  callus inducing effect (in words): strong callus inducing effect
  callus induction in recalcitrant genotype A (FIG. 3): dramatically promotes callus induction; also recorded: promotes callus formation
Sugar beet leaf explants; 30 μM dissolved in 2 ml/L DMSO
  Callus induction effect: ++
Sugar beet leaf explants; 30 μM vs control without HP
  amount of callus tissue induced from leaves (FIG. 5): much more amount of callus tissue
Sugar beet leaf explants; 50 μM
  callus inducing effect (in words): strong callus inducing effect
  callus induction in recalcitrant genotype A (FIG. 3): promotes callus formation
Sugar beet leaf explants; 50 μM dissolved in 2 ml/L DMSO
  Callus induction effect: ++
Sugar beet leaf explants; 100 μM
  callus inducing effect (in words): modest effect
Sugar beet leaf explants; 100 μM dissolved in 2 ml/L DMSO
  Callus induction effect: +
Sugar beet leaf explants; 500 μM dissolved in 2 ml/L DMSO
  Callus induction effect: −
Sugar beet leaf explants; 1 mM dissolved in 2 ml/L DMSO
  Callus induction effect: −
Sugar beet leaf explants; higher concentration (500 μM, 1 mM)
  callus inducing effect (in words): no effect
Sugar beet leaf explants; recalcitrant genotypes A and B
  callus induction efficiency with vs without HP (FIG. 4): boosting effect
Arabidopsis thaliana
  leaf formation rate: enhance leaf formation rate
Sugar beet callus
  Agrobacterium infection of HP induced callus (FIG. 7): can be infected by agrobacteria
